pIC50: −log10 of the molar value.
Assays:
L1210 [1] = assay: Inhibitory concentration required against L1210 leukemia cells; type: functional, cell-based; details: Mus musculus
L1210 [2] = details: Mus musculus
Description: Effect on L1210 cell cycle was determined and percent of treated cells in the G2M phase of L1210 leukemia cells was determined; NS implies not significant.

L1210 [3] = details: Mus musculus; remark: listed apart in the source
Description: Effect on L1210 cell cycle was determined and percent of treated cells in the G1 phase of L1210 leukemia cells was determined; NS implies not significant.

L1210 [4] = assay: Cytotoxic concentration against L1210 leukemia cells was determined; 30% apoptosis ([…]) was observed; type: functional, cell-based; details: Mus musculus
L1210 [5] = assay: Effect of compound on L1210 cell cycle was determined and percent of treated cells in the G2M phase of L1210 leukemia cells; type: functional, Mus musculus
L1210 [6] = assay: Effect of compound on L1210 cell cycle was determined and percent of treated cells in the G2M phase of L1210 leukemia cells was determined; type: functional, Mus musculus
L1210 [7] = assay: Effect on L1210 cell cycle was determined and percent of treated cells in the G1 phase of L1210 leukemia cells was determined; type: functional, Mus musculus

| Structure (SMILES) | pIC50 (L1210 [1]) | Treated cells (L1210 [2]) | Treated cells (L1210 [3]) | other results |
| --- | --- | --- | --- | --- |
| COc1ccc2c3cc[n+]4nc(/C=C/[Si](C(C)C)(C(C)C)C(C)C)c(/C=C/[Si](C(C)C)(C(C)C)C(C)C)cc4c3n(C)c2c1 | 5.64 |  |  |  |
| Cc1cc2c3[nH]c4cc(OCc5ccccc5)ccc4c3cc[n+]2nc1C | 5.28 | Not significant | Not significant |  |
| COc1cccc2c1C(=O)c1c(O)c3c(c(O)c1C2=O)C[C@@](O)(C(=O)CO)C[C@@H]3O[C@H]1C[C@H](N)[C@H](O)[C@H](C)O1 [DOXORUBICIN] |  |  |  | Treated cells (L1210 [6]): 81% |
| CCc1cc2c3[nH]c4ccc([N+](=O)[O-])cc4c3cc[n+]2nc1CC | 4.82 | Not significant | Not significant |  |
| CC[C@@]1(O)C(=O)OCc2c1cc1n(c2=O)Cc2cc3ccccc3nc2-1 [CAMPTOTHECIN] | 7.52 |  |  | Treated cells (L1210 [6]): 80% |
| CCc1cc2c3[nH]c4cc(O)ccc4c3cc[n+]2nc1CC | 5.00 | Not significant | Not significant |  |
| CCOC(=O)Cn1c2cc(OC)ccc2c2cc[n+]3nc(C)c(C)cc3c21 | 5.30 | Not significant | Not significant |  |
| C#CCNC(=O)Cn1c2cc(OC)ccc2c2cc[n+]3nc(CC)c(CC)cc3c21 | 4.14 |  |  |  |
| C#CCNC(=O)Cn1c2ccccc2c2cc[n+]3nc(-c4cccc5ccccc45)c(-c4cccc5ccccc45)cc3c21 | 4.98 | Not significant | Not significant |  |

Second part, led by results:

| pIC50 (L1210 [1]) | Structure (SMILES) | Treated cells (L1210 [2]) | Treated cells (L1210 [3]) | other results |
| --- | --- | --- | --- | --- |
| 5.64 | CCc1cc2c3[nH]c4ccc(Br)cc4c3cc[n+]2nc1CC | Not significant | Not significant |  |
| 6.00 | CCc1cc2c3[nH]c4c(N)cccc4c3cc[n+]2nc1CC | Not significant | Not significant | Concentration (L1210 [4]): 5 µM |
| 5.89 | COc1ccc2c(c1)[nH]c1c2cc[n+]2nc(C)c(C)cc12 |  |  | Treated cells (L1210 [5]): 38% |
| 5.82 | CCc1cc2c3[nH]c4c([N+](=O)[O-])cccc4c3cc[n+]2nc1CC | Not significant | Not significant | Concentration (L1210 [4]): 5 µM |
| 5.70 | CCOC(=O)CCCn1c2cc(OC)ccc2c2cc[n+]3nc(CC)c(CC)cc3c21 | Not significant | Not significant |  |
| 7.19 | CCCCCn1c2cc(OC)ccc2c2cc[n+]3nc(CC)c(CC)cc3c21 |  |  | Treated cells (L1210 [7]): 60% |
| 5.96 | CCOC(=O)Cn1c2cc(OC)ccc2c2cc[n+]3nc(CC)c(CC)cc3c21 |  |  | Treated cells (L1210 [6]): 46% |
| 5.96 | CCc1cc2c3c(cc[n+]2nc1CC)c1ccc(OC)cc1n3C |  |  | Treated cells (L1210 [7]): 65% |
| 5.70 | CCc1cc2c3[nH]c4cc(OC)ccc4c3cc[n+]2nc1CC |  |  | Treated cells (L1210 [5]): 35% |
| 5.72 | CCc1cc2c3[nH]c4cc(OCc5ccccc5)ccc4c3cc[n+]2nc1CC.[Br-] |  |  | Treated cells (L1210 [7]): 54% |
| 7.32 | CCCCCn1c2cc(OC)ccc2c2cc[n+]3nc(C)c(C)cc3c21 |  |  | Treated cells (L1210 [7]): 57% |
| 5.72 | CCc1cc2c3c(cc[n+]2nc1CC)c1ccccc1n3CCCBr | Not significant | Not significant |  |
| 5.89 | C#CCCCn1c2cc(OC)ccc2c2cc[n+]3nc(-c4ccco4)c(-c4ccco4)cc3c21 |  |  | Treated cells (L1210 [7]): 54% |

From ChEMBL document CHEMBL1135332, “Synthesis and cytotoxic activity of pyridazino[1',6':1,2]pyrido[3,4-b]indol-5-inium derivatives as anti-cancer agents” (Bioorg Med Chem Lett, 2002)
